System: yeast BY4741 (WT)
Experiment: Micromanipulation assay of replicative lifespan (RLS)
Type: cell-based, Saccharomyces cerevisiae
Conditions: 25 μM; FIG. 1F
Description: The micromanipulation of the yeast cells was carried out as follows. Prior to analysis, yeast strains BY4741 (WT), BY4741-fob1Δ (fob1Δ), or BY4741-sir2Δfob1Δ (sir2Δfob1Δ) were plated onto fresh solid YEPD medium and grown at 30° C. for two days. Then, individual colonies were picked and grown in solid YEPD media containing: (1) dimethyl sulfoxide (DMSO), (2) 10, 25, or 50 μM PN6, or (3) 25 μM β-sitosterol at 30° C. overnight, and a small number of yeast cells were then plated onto a fresh YEPD plate for lifespan analysis. After overnight growth on the lifespan plates, the cells were arrayed on the plate using a micromanipulator and allowed to grow for approximately 3 hours. Virgin daughter cells were selected and subjected to lifespan analysis. In the lifespan experiments, the plates were incubated at 30° C. during the day and stored at 4° C. overnight. Each experiment consisted of more than 50 mother cells and was independently repeated three times.

## CC[C@H](CC[C@@H](C)[C@H]1CC[C@H]2[C@@H]3CC=C4C[C@@H](O)CC[C@]4(C)[C@H]3CC[C@]12C)C(C)C [3-sitosterol, β-sitosterol]
  extension of the RLS of yeast: not seen

Reference: patent US20250009763A1, “METHODS FOR EXTENDING LIFESPAN AND/OR DELAYING AGING” (priority 2023, published 2025)
